Data taken from US8796289B2 (AbbVie Inc., priority 2011, dated 2014).

Each compound was assayed against GST-tagged-Wee1 kinase (Homo sapiens, UniProt P30291) (assay: Wee1 time-resolved fluorescence equilibrium binding assay (displacement of Oregon Green-labeled ATP-competitive kinase probe)).
Description: Wee1 kinase was assayed using a time-resolved fluorescence equilibrium binding assay monitoring displacement of a rapidly reversible Oregon Green-labeled ATP-competitive kinase probe (N-(2-(2-(2-(4-(4-(5-chloro-4-(2-(1-hydroxycyclobutyl)thiazol-5-yl)-1H-pyrrolo[2,3-b]pyridin-2-yl)phenyl)piperazin-1-yl)ethoxy)ethoxy)ethyl)-2′,7′-difluoro-3′,6′-dihydroxy-3-oxo-3H-spiro[isobenzofuran-1,9′-xanthene]-5-carboxamide) by competitive Wee1 inhibitors.

Sequence of GST-tagged-Wee1 kinase (P30291 whole entry): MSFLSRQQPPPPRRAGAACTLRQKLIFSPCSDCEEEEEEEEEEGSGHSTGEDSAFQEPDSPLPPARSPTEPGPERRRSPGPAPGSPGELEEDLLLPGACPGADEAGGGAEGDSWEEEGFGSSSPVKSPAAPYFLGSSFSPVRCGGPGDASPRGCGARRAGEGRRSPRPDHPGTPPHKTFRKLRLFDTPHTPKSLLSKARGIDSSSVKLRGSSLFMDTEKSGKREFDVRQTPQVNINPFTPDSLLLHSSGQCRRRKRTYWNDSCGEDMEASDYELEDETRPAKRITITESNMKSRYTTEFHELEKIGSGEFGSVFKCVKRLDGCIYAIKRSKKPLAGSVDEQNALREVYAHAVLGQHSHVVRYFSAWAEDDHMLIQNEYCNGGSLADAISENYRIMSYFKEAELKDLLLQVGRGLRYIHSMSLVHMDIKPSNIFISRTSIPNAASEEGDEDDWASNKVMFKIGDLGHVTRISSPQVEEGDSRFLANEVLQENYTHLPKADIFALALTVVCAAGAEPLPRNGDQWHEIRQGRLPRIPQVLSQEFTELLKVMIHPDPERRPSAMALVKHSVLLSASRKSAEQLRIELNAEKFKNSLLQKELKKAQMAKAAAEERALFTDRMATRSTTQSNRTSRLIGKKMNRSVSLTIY

CN1Cc2cc(Nc3ncc4c(=O)n(-c5c(Cl)cccc5Cl)nc(-c5ccccn5)c4n3)ccc2C(C)(C)C1 [Example 241, 6-(2,6-dichlorophenyl)-8-(pyridin-2-yl)-2-[(2,4,4-trimethyl-1,2,3,4-tetrahydroisoquinolin-7-yl)amino]pyrimido[4,5-d]pyridazin-5(6H)-one] was tested. Which Ki did it give?
Its Ki is 0.1 nM.

Which Ki does the source give for CN1Cc2cc(Nc3ncc4c(=O)n(CCO)nc(-c5ccccn5)c4n3)ccc2C(C)(C)C1 [Example 242, 6-(2-hydroxyethyl)-8-(pyridin-2-yl)-2-[(2,4,4-trimethyl-1,2,3,4-tetrahydroisoquinolin-7-yl)amino]pyrimido[4,5-d]pyridazin-5(6H)-one] here?
The Ki was 50 nM.

CN1CCN(c2ccc(Nc3ncc4c(=O)n(-c5c(Cl)cccc5Cl)nc(-c5cccc(F)n5)c4n3)cc2)CC1 [Example 243, 6-(2,6-dichlorophenyl)-8-(6-fluoropyridin-2-yl)-2-{[4-(4-methylpiperazin-1-yl)phenyl]amino}pyrimido[4,5-d]pyridazin-5(6H)-one] was tested. Which Ki did it give?
The Ki was < 1 nM.

Which Ki does the source give for CN1CCN(c2ccc(Nc3ncc4c(=O)n(-c5c(Cl)cccc5Cl)nc(-c5ccc(N6CCCC6=O)cc5)c4n3)cc2)CC1 [Example 244, 6-(2,6-dichlorophenyl)-2-{[4-(4-methylpiperazin-1-yl)phenyl]amino}-8-[4-(2-oxopyrrolidin-1-yl)phenyl]pyrimido[4,5-d]pyridazin-5(6H)-one] here?
The Ki was 0.5 nM.

Which Ki does the source give for CN1CCc2ccc(Nc3ncc4c(=O)n(-c5ccccc5Cl)nc(-c5ccccc5)c4n3)cc2C1 [Example 245, 6-(2-chlorophenyl)-2-[(2-methyl-1,2,3,4-tetrahydroisoquinolin-7-yl)amino]-8-phenylpyrimido[4,5-d]pyridazin-5(6H)-one] here?
The Ki was 0.7 nM.

Which Ki does the source give for Cc1cc(Nc2ncc3c(=O)n(-c4ccccc4C)nc(-c4ccco4)c3n2)ccc1N1CCCN(C(C)C)CC1 [Example 246, 8-(furan-2-yl)-6-(2-methylphenyl)-2-({3-methyl-4-[4-(propan-2-yl)-1,4-diazepan-1-yl]phenyl}amino)pyrimido[4,5-d]pyridazin-5(6H)-one] here?
Its Ki is 0.3 nM.

For O=C1CCCN1c1ccc(-c2nn(-c3c(Cl)cccc3Cl)c(=O)c3cnc(Nc4ccc5c(c4)CNCC5)nc23)cc1 [Example 247, 6-(2,6-dichlorophenyl)-8-[4-(2-oxopyrrolidin-1-yl)phenyl]-2-(1,2,3,4-tetrahydroisoquinolin-7-ylamino)pyrimido[4,5-d]pyridazin-5(6H)-one], which Ki is on record?
Its Ki is 0.2 nM.

Which Ki does the source give for CN1CCN(c2ccc(Nc3ncc4c(=O)n(-c5c(Cl)cccc5Cl)nc(-c5ccnc(C(=O)N(C)C)c5)c4n3)cc2)CC1 [Example 248, 4-[6-(2,6-dichlorophenyl)-2-{[4-(4-methylpiperazin-1-yl)phenyl]amino}-5-oxo-5,6-dihydropyrimido[4,5-d]pyridazin-8-yl]-N,N-dimethylpyridine-2-carboxamide] here?
The Ki was 0.4 nM.

With O=c1c2cnc(Nc3ccc(N4CCNCC4)cc3)nc2c(-c2ccccn2)nn1C1CCCCC1 [Example 249, 6-cyclohexyl-2-{[4-(piperazin-1-yl)phenyl]amino}-8-(pyridin-2-yl)pyrimido[4,5-d]pyridazin-5(6H)-one] as the compound, how does the Ki read?
Its Ki is 1500 nM.

For CN1CCN(c2ccc(Nc3ncc4c(=O)n(-c5c(Cl)cccc5Cl)nc(-c5ccnc(C(C)(C)O)c5)c4n3)cc2)CC1 [Example 250, 6-(2,6-dichlorophenyl)-8-[2-(2-hydroxypropan-2-yl)pyridin-4-yl]-2-{[4-(4-methylpiperazin-1-yl)phenyl]amino}pyrimido[4,5-d]pyridazin-5(6H)-one], which Ki is on record?
The Ki was 0.2 nM.

How did the Ki turn out when O=c1c2cnc(Nc3ccc4c(c3)CNCC4)nc2c(-c2cnccn2)nn1-c1c(Cl)cccc1Cl [Example 251, 6-(2,6-dichlorophenyl)-8-(pyrazin-2-yl)-2-(1,2,3,4-tetrahydroisoquinolin-7-ylamino)pyrimido[4,5-d]pyridazin-5(6H)-one] was run?
Its Ki is 0.2 nM.

How did the Ki turn out when COCCn1ccc(-c2nn(-c3c(Cl)cccc3Cl)c(=O)c3cnc(Nc4ccc(N5CCN(C)CC5)cc4)nc23)n1 [Example 252, 6-(2,6-dichlorophenyl)-8-[1-(2-methoxyethyl)-1H-pyrazol-3-yl]-2-{[4-(4-methylpiperazin-1-yl)phenyl]amino}pyrimido[4,5-d]pyridazin-5(6H)-one] was run?
The Ki was 0.4 nM.

O=c1c2cnc(Nc3ccc4c(c3)CNCC43CC3)nc2c(-c2ccncc2)nn1-c1c(Cl)cccc1Cl [Example 253, 6-(2,6-dichlorophenyl)-2-(2′,3′-dihydro-1′H-spiro[cyclopropane-1,4′-isoquinolin]-7′-ylamino)-8-(pyridin-4-yl)pyrimido[4,5-d]pyridazin-5(6H)-one] was tested. Which Ki did it give?
Its Ki is 0.09 nM.

For O=C1CCCN1c1ccc(-c2nn(-c3c(Cl)cccc3Cl)c(=O)c3cnc(Nc4ccc(C5CCNCC5)cc4)nc23)cc1 [Example 254, 6-(2,6-dichlorophenyl)-8-[4-(2-oxopyrrolidin-1-yl)phenyl]-2-{[4-(piperidin-4-yl)phenyl]amino}pyrimido[4,5-d]pyridazin-5(6H)-one], which Ki is on record?
Its Ki is 0.3 nM.

Which Ki does the source give for O=c1c2cnc(Nc3ccc(S(=O)(=O)N4CCOCC4)cc3)nc2c(-c2ccccc2)nn1-c1ccccc1Cl [Example 255, 6-(2-chlorophenyl)-2-{[4-(morpholin-4-ylsulfonyl)phenyl]amino}-8-phenylpyrimido[4,5-d]pyridazin-5(6H)-one] here?
The Ki was > 3140 nM.

CN1Cc2cc(Nc3ncc4c(=O)n(-c5c(Cl)cccc5Cl)nc(-c5ccncc5)c4n3)ccc2C(C)(C)C1 [Example 256, 6-(2,6-dichlorophenyl)-8-(pyridin-4-yl)-2-[(2,4,4-trimethyl-1,2,3,4-tetrahydroisoquinolin-7-yl)amino]pyrimido[4,5-d]pyridazin-5(6H)-one] was tested. Which Ki did it give?
Its Ki is 0.3 nM.

Which Ki does the source give for O=c1c2cnc(Nc3ccc4c(c3)CNCC43CC3)nc2c(-c2cccc(F)n2)nn1-c1c(Cl)cccc1Cl [Example 257, 6-(2,6-dichlorophenyl)-2-(2′,3′-dihydro-1′H-spiro[cyclopropane-1,4′-isoquinolin]-7′-ylamino)-8-(6-fluoropyridin-2-yl)pyrimido[4,5-d]pyridazin-5(6H)-one] here?
The Ki was 2 nM.

C=CCn1nc(-c2ccco2)c2nc(Nc3ccc4c(c3)CN(C)CC4)ncc2c1=O [Example 258, 8-(furan-2-yl)-2-[(2-methyl-1,2,3,4-tetrahydroisoquinolin-7-yl)amino]-6-(prop-2-en-1-yl)pyrimido[4,5-d]pyridazin-5(6H)-one] was tested. Which Ki did it give?
The Ki was 2 nM.

NCCn1ccc(-c2nn(-c3c(Cl)cccc3Cl)c(=O)c3cnc(Nc4ccc(N5CCNCC5)cc4)nc23)n1 [Example 259, 8-[1-(2-aminoethyl)-1H-pyrazol-3-yl]-6-(2,6-dichlorophenyl)-2-{[4-(piperazin-1-yl)phenyl]amino}pyrimido[4,5-d]pyridazin-5(6H)-one] was tested. Which Ki did it give?
The Ki was 0.2 nM.

CN1CCN(c2ccc(Nc3ncc4c(=O)n(-c5c(Cl)cccc5Cl)nc(-c5ccnc(Cl)c5)c4n3)cc2)CC1 [Example 260, 8-(2-chloropyridin-4-yl)-6-(2,6-dichlorophenyl)-2-{[4-(4-methylpiperazin-1-yl)phenyl]amino}pyrimido[4,5-d]pyridazin-5(6H)-one] was tested. Which Ki did it give?
Its Ki is 0.2 nM.

CNCCn1ccc(-c2nn(-c3c(Cl)cccc3Cl)c(=O)c3cnc(Nc4ccc(N5CCN(C)CC5)cc4)nc23)n1 [Example 261, 6-(2,6-dichlorophenyl)-8-{1-[2-(methylamino)ethyl]-1H-pyrazol-3-yl}-2-{[4-(4-methylpiperazin-1-yl)phenyl]amino}pyrimido[4,5-d]pyridazin-5(6H)-one] was tested. Which Ki did it give?
The Ki was 0.3 nM.
